Experimental data from BindingDB's records for doi:10.1111/cbdd.12861 (Quaid-i-Azam University, 2017).

Key:
[1] = target: Intestinal-type alkaline phosphatase (Bos taurus, UniProt P19111); experiment: Alkaline Phosphatase Inhibition Assay; details: pH 9.8; 37 °C
Method: (§1) The assay conditions were optimized with some changes in formerly reported spectrophotometric method. The composition of assay buffer of pH 9.8 was as: […], 0.05 mM ZnCl2 and 2.5 mM MgCl2. All compounds were tested at the initial concentration of 0.2 mM. A total assay volume of 50 μL contained 10 μL of tested compound, followed by the addition of 20 μL of either b-TNAP (1:800 times diluted enzyme in assay buffer) or 20 μL of c-IAP (1:800 times diluted enzyme in same assay buffer). After incubating the reaction mixture for 3-5 minutes at 37 °C, pre-read was taken by measuring luminescence with the help of microplate reader (BioTek FLx800, Instruments, Inc. USA). After that, 20 μL of substrate (CDP-Star) at the concentration of (110 μM) was added to the reaction mixture. Then the reaction mixture was again incubated for 15-20 min at 37 °C and after read was taken to measure the change in the luminescence. Total activity control (without inhibitor or negative control) was used for comparison of the activity of each test compound. L-phenylalanine (at concentration of 4 mM per well) and Levamisole (at concentration of 2 mM per well) were used as reference standards against calf intestinal alkaline phosphatase (c-IAP) and bovine tissue-nonspecific alkaline phosphatase (b-TNAP) respectively.

5'-nucleotidase [2] = target: T1, 5'-nucleotidase (Rattus norvegicus, UniProt P21588); experiment: Ecto-5'-Nucleotidase Inhibition Assay; details: pH 7.4; 37 °C
T1 sequence (P21588 whole entry): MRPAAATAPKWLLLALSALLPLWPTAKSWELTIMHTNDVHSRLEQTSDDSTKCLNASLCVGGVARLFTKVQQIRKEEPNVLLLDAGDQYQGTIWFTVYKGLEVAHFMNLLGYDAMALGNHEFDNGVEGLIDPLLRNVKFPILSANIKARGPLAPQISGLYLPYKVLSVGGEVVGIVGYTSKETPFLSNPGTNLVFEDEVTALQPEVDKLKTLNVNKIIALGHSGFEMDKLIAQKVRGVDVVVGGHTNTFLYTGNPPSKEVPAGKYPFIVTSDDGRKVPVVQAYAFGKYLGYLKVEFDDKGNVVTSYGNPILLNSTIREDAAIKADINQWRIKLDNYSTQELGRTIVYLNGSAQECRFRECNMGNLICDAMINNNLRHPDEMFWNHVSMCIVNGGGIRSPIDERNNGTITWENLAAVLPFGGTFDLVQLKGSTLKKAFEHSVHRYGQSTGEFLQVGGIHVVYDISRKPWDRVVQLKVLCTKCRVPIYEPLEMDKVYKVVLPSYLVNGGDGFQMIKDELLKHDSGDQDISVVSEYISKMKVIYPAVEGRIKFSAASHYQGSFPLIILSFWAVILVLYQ
Method: (§2) The enzymatic assay of both human and rat ecto-5'-nucleotidase were performed with slight modifications in the previously described method. […] Aliquots of 50 μL of each reaction mixture was transferred into CE mini vial and hydrodynamically injected into the capillary by using pressure of 0.5 psi for 5s. The electrosmatic separation of substrate and product peaks occurred by applying voltage of 15 kV. The concentration of product i.e. adenosine was estimated by calculating the area under its absorbance peak at 260 nm.

5'-nucleotidase [3] = target: 5'-nucleotidase (Homo sapiens, UniProt P21589); experiment: Ecto-5'-Nucleotidase Inhibition Assay; details: pH 7.4; 37 °C
Method: as §2

[4] = target: T2, Alkaline phosphatase, tissue-nonspecific isozyme (Bos taurus, UniProt P09487); experiment: Alkaline Phosphatase Inhibition Assay; details: pH 9.8; 37 °C
T2 sequence (P09487 whole entry): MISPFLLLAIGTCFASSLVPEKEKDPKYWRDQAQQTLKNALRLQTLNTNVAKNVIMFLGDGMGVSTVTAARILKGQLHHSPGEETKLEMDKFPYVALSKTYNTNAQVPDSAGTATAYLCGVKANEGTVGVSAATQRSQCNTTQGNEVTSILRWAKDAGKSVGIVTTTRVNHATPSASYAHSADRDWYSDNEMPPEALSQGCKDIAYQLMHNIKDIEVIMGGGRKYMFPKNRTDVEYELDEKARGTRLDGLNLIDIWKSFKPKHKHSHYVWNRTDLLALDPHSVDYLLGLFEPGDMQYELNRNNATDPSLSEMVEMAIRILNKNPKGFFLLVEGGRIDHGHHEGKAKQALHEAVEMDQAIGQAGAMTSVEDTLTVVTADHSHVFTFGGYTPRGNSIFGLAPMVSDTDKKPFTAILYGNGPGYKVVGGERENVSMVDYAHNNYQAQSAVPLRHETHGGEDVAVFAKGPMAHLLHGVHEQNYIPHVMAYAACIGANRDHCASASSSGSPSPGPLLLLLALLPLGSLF
Method: as §1

Sequence of 5'-nucleotidase (Homo sapiens, UniProt P21589) (P21589 whole entry): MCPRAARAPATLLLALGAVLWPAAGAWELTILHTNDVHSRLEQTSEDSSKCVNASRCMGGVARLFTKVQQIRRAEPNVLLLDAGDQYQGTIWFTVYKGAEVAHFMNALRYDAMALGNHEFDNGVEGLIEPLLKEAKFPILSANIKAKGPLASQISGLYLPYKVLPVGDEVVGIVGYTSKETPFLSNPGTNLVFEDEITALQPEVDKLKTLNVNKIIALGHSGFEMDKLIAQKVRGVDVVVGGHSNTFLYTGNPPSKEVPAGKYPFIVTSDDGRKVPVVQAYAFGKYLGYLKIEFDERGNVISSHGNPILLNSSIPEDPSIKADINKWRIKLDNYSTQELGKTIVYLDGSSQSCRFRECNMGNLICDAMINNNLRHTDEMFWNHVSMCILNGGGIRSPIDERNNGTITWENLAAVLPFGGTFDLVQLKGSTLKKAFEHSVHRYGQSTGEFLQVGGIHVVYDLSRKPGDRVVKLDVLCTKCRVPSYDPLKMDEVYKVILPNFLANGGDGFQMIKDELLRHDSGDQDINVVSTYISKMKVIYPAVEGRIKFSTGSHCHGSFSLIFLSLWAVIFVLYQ
Sequence of Intestinal-type alkaline phosphatase (P19111 whole entry): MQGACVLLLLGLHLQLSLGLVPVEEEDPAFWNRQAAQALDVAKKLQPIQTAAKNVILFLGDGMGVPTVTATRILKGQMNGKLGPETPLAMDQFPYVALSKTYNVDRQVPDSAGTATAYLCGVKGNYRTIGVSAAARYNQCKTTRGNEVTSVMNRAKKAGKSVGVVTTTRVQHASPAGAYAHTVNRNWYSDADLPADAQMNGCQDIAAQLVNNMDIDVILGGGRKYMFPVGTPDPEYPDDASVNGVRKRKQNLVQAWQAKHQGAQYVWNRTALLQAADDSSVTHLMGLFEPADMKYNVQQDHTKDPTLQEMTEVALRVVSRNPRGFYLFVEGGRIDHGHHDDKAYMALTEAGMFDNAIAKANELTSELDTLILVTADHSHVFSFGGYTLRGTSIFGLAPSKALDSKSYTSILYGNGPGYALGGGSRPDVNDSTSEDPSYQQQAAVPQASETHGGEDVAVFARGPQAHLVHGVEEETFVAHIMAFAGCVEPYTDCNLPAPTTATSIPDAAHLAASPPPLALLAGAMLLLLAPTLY

| SMILES | IC50 [1] | IC50 (5'-nucleotidase [2]) | IC50 (5'-nucleotidase [3]) | IC50 [4] |
| --- | --- | --- | --- | --- |
| O=C(N/N=C/c1ccncc1)c1ccncc1 [(E)-N'-(Pyridin-4'-ylmethylene)isonicotinohydrazide (3h)] | 2.46 µM | 2.89 µM | 2.12 µM | – |
| O=C(N/N=C/c1ccc(F)cc1)c1ccncc1 [(E)-N'-(4'-Fluorobenzylidene)isonicotinohydrazide (3c)] | 17.5 µM | 0.44 µM | 6.76 µM | 2.26 µM |
| O=C(N/N=C/c1ccc(Br)cc1)c1ccncc1 [(E)-N'-(4'-Bromobenzylidene)isonicotinohydrazide (3b)] | 9.72 µM | 7.13 µM | 0.23 µM | 4.13 µM |
| O=C(N/N=C/c1cccnc1)c1ccncc1 [(E)-N'-(Pyridin-3'-ylmethylene)isonicotinohydrazide (3i)] | 1.46 µM | 3.01 µM | 0.21 µM | 2.43 µM |
| COc1cc(/C=N/NC(=O)c2ccncc2)ccc1O [(E)-N'-(4'-Hydroxy-3-methoxybenzylidene)isonicotinohydrazide (3g)] | 1.92 µM | – | – | 0.35 µM |
| O=C(N/N=C/c1ccccc1O)c1ccncc1 [(E)-N'-(2'-hydroxybenzylidene)isonicotinohydrazide (3e)] | 1.44 µM | 0.45 µM | 1.34 µM | – |
| O=C(N/N=C/c1cccc([N+](=O)[O-])c1)c1ccncc1 [(E)-N'-(3'-Nitrobenzylidene)isonicotinohydrazide (3f)] | 7.34 µM | 0.21 µM | 1.9 µM | 1.82 µM |
| O=C(N/N=C/c1ccc(Cl)cc1)c1ccncc1 [(E)-N'-(4'-Chlorobenzylidene)isonicotinohydrazide (3a)] | 0.67 µM | 1.08 µM | 1.67 µM | – |
| COc1ccc(/C=N/NC(=O)c2ccncc2)cc1 [(E)-N'-(4'-Methoxybenzylidene)isonicotinohydrazide (3d)] | 1.74 µM | 0.31 µM | 13.8 µM | 0.56 µM |
| C/C(=N\NC(=O)c1ccncc1)N1N=C(c2ccc(F)cc2)CC1c1ccccc1 (stereo not given) [(E)-N'-(1-(3-(4-fluorophenyl)-5-phenyl-4,5-dihydro-1H-pyrazol-1yl)ethylidene)isonicotino hydrazide (3j)] | 3.98 µM | 0.36 µM | 0.19 µM | 1.06 µM |
